Earlier results in US12691079B2, “Biodissolvable film for localized and efficient treatment of vulvodynia” (The University of North Carolina at Chapel Hill, priority 2019, dated 2026).

System: vulvar vestibule
Conditions: topical application to the vulvar vestibule

Q: For `CCN(CC)CC(=O)Nc1c(C)cccc1C` [lidocaine], which duration of relief is on record?
A: Its duration of relief is 30 to 60 min.
